Results on eleven molecules are retold here after PMC10914734 (Signal Transduction and Targeted Therapy, 2024).

In general, IC50 refers to the concentration that gives 50% inhibition. By inhibition is commonly meant the percentage by which the read-out fell short of the control.

Human CTSL, sequence (P07711 114-333): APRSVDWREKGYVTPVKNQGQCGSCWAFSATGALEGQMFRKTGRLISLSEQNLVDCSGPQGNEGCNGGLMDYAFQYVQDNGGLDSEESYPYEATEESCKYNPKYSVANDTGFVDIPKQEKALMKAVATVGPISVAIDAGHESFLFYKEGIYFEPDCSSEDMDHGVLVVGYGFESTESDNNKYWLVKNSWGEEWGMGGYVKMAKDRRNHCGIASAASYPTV

The first test has as its target Human CTSL (Homo sapiens, UniProt P07711). As to the kind of experiment: FRET-based cleavage assay, enzymatic inhibition of human CTSL.
Details: not given
In turn, `O=C(N[C@@H](Cc1ccc(F)cc1)C(=O)N[C@H](/C=C/S(=O)(=O)c1ccccc1)C[C@@H]1CCCNC1=O)c1cc2ccccc2o1` [14c, N-((S)-3-(4-fluorophenyl)-1-oxo-1-(((S,E)-1-((S)-2-oxopiperidin-3-yl)-4-(phenylsulfonyl)but-3-en-2-yl)amino)propan-2-yl)benzofuran-2-carboxamide] gave a half-maximal inhibitory concentration (IC50) of 50.3 ± 12.1 nM.

Consider `O=C(N/N=C/[C@H](C[C@@H]1CCCNC1=O)NC(=O)[C@H](Cc1ccc(F)cc1)NC(=O)c1cc2ccccc2o1)c1ccccc1` [14e, N-((S)-1-(((S,E)-1-(2-benzoylhydrazineylidene)-3-((S)-2-oxopiperidin-3-yl)propan-2-yl)amino)-3-(4-fluorophenyl)-1-oxopropan-2-yl)benzofuran-2-carboxamide], for which the concentration for half-maximal inhibition (IC50) amounted to 3940 nM. Regarding `O=C(N[C@@H](Cc1ccc(F)cc1)C(=O)N[C@H](/C=N/NC(=O)C1CCCCC1)C[C@@H]1CCCNC1=O)c1cc2ccccc2o1` [14f, N-((S)-1-(((S,E)-1-(2-(cyclohexanecarbonyl)hydrazineylidene)-3-((S)-2-oxopiperidin-3-yl)propan-2-yl)amino)-3-(4-fluorophenyl)-1-oxopropan-2-yl)benzofuran-2-carboxamide], inhibition was half-maximal at 8530 nM (IC50).

`O=C(N[C@@H](Cc1ccc(F)cc1)C(=O)N[C@H](/C=N/NC(=O)C1CC1)C[C@@H]1CCCNC1=O)c1cc2ccccc2o1` [14g, N-((S)-1-(((S,E)-1-(2-(cyclopropanecarbonyl)hydrazineylidene)-3-((S)-2-oxopiperidin-3-yl)propan-2-yl)amino)-3-(4-fluorophenyl)-1-oxopropan-2-yl)benzofuran-2-carboxamide] showed an IC50 of 1320 nM.

`O=C(N[C@@H](Cc1ccc(F)cc1)C(=O)N[C@H](/C=N/Nc1ncccn1)C[C@@H]1CCCNC1=O)c1cc2ccccc2o1` [14h, N-((S)-3-(4-fluorophenyl)-1-oxo-1-(((S,E)-1-((S)-2-oxopiperidin-3-yl)-3-(2-(pyrimidin-2-yl)hydrazineylidene)propan-2-yl)amino)propan-2-yl)benzofuran-2-carboxamide] came in with an IC50 of 1600 nM. `O=C(O)/C(F)=C/[C@H](C[C@@H]1CCCNC1=O)NC(=O)[C@H](CC1CCCCC1)NC(=O)c1cc2ccccc2o1` [14i, (S,Z)-4-((S)-2-(benzofuran-2-carboxamido)-3-cyclohexylpropanamido)-2-fluoro-5-((S)-2-oxopiperidin-3-yl)pent-2-enoic acid] displayed an IC50 of 2160 nM. The same measure, in the same setting: under `CC1(C)[C@@H]2[C@@H](C(=O)N[C@@H](C[C@@H]3CCCNC3=O)C(=O)C(=O)NCc3ccccc3)N(C(=O)c3cc4ccccc4o3)C[C@@H]21` [14m, (1R,2S,5S)-3-(benzofuran-2-carbonyl)-N-((S)-4-(benzylamino)-3,4-dioxo-1-((S)-2-oxopiperidin-3-yl)butan-2-yl)-6,6-dimethyl-3-azabicyclo[3.1.0]hexane-2-carboxamide] stands 1870 nM.

Staying with this test, now noted: read-out: IC50, enzymatic inhibitory activity against human CTSL; mean ± SD.
Take `O=C(N[C@@H](CC1C=CC=CC1)C(=O)N[C@H](/C=C/S(=O)(=O)c1ccccc1)C[C@@H]1CCCNC1=O)c1cc2ccccc2o1` (stereo partly drawn) [14d, N-((2S)-3-(cyclohexa-2,4-dien-1-yl)-1-oxo-1-(((S,E)-1-((S)-2-oxopiperidin-3-yl)-4-(phenylsulfonyl)but-3-en-2-yl)amino)propan-2-yl)benzofuran-2-carboxamide]: the IC50 turned out to be 77.2 ± 12 nM.

Staying with this test, now noted: read-out: Inhibition rate against human CTSL.
As to `CCOC(=O)/C(F)=C/[C@H](C[C@@H]1CCCNC1=O)NC(=O)[C@H](CC1CCCCC1)NC(=O)c1cc2ccccc2o1` [14j, Ethyl (S,Z)-4-((S)-2-(benzofuran-2-carboxamido)-3-cyclohexylpropanamido)-2-fluoro-5-((S)-2-oxopiperidin-3-yl)pent-2-enoate], the inhibition at 1 µM was determined as 30%. The same measure, in the same setting: with `O=C(NC1CC1)/C(F)=C/[C@H](C[C@@H]1CCCNC1=O)NC(=O)[C@H](CC1CCCCC1)NC(=O)c1cc2ccccc2o1` [14k, N-((S)-3-cyclohexyl-1-(((S,Z)-5-(cyclopropylamino)-4-fluoro-5-oxo-1-((S)-2-oxopiperidin-3-yl)pent-3-en-2-yl)amino)-1-oxopropan-2-yl)benzofuran-2-carboxamide] the figure was 37%; with `O=C(NCc1ccccc1)C(=O)[C@H](C[C@@H]1CCCNC1=O)NC(=O)[C@@H]1[C@H]2CCC[C@H]2CN1C(=O)c1cc2ccccc2o1` [14l, (1S,3aR,6aS)-2-(benzofuran-2-carbonyl)-N-((S)-4-(benzylamino)-3,4-dioxo-1-((S)-2-oxopiperidin-3-yl)butan-2-yl)octahydrocyclopenta[c]pyrrole-1-carboxamide], 12%.
